From ChEMBL document CHEMBL3997761 (Medchemcomm, 2016) come the findings set out here.

Series [1] is described as follows: Induction of nanoparticle formation in ultrapure water assessed as nanoparticle size at 1 uM by transmission electron microscopic method.
Series [2] in a line: Induction of nanoparticle formation in ultrapure water assessed as nanoparticle size at 10 uM by transmission electron microscopic method.
Series [3] deals with K562. Briefly: Antiproliferative activity against human K562 cells after 48 hrs by MTT assay. In kind it is functional, cell-based. As to conditions: K562, 48 h.
Another series concerns HT-29. Briefly: Antiproliferative activity against human HT-29 cells after 48 hrs by MTT assay. It is filed as functional, cell-based. As to conditions: HT-29, 48 h.
A further series concerns HeLa. Description: Antiproliferative activity against human HeLa cells after 48 hrs by MTT assay. In kind it is functional, cell-based.
The next series concerns SH-SY5Y. Description: Antiproliferative activity against human SH-SY5Y cells after 48 hrs by MTT assay. It is filed as functional, cell-based.
In series [4] the test system is K562. Description: Induction of apoptosis in human K562 cells assessed as late apoptotic cells at 10 uM after 12 hrs by Annexin V-FITC/propidium iodide staining based flow cytometry (reference value: 1.7%). It is filed as functional.
Series [5] has as its system K562. Description: Induction of apoptosis in human K562 cells assessed as necrotic cells at 10 uM after 12 hrs by Annexin V-FITC/propidium iodide staining based flow cytometry (reference value: 0.6%). It is filed as functional.
The test system of series [6] is K562. Description: Induction of apoptosis in human K562 cells assessed as live cells at 10 uM after 12 hrs by Annexin V-FITC/propidium iodide staining based flow cytometry (reference value: 91.6%). It is filed as functional.
Series [7] has as its system K562. Briefly: Induction of apoptosis in human K562 cells assessed as early apoptotic cells at 10 uM after 12 hrs by Annexin V-FITC/propidium iodide staining based flow cytometry (reference value: 5.1%). In kind it is functional.
Series [8] has as its system K562. Briefly: Induction of apoptosis in human K562 cells assessed as live cells at 10 uM after 24 hrs by Annexin V-FITC/propidium iodide staining based flow cytometry (reference value: 94.3%). In kind it is functional.
Series [9] concerns K562. Briefly: Induction of apoptosis in human K562 cells assessed as early apoptotic cells at 10 uM after 24 hrs by Annexin V-FITC/propidium iodide staining based flow cytometry (reference value: 3.2%). It is filed as functional.
Series [10] relates to K562. Briefly: Induction of apoptosis in human K562 cells assessed as late apoptotic cells at 10 uM after 24 hrs by Annexin V-FITC/propidium iodide staining based flow cytometry (reference value: 1.9%). It is filed as functional.
Series [11] has as its system K562. Briefly: Induction of apoptosis in human K562 cells assessed as necrotic cells at 10 uM after 24 hrs by Annexin V-FITC/propidium iodide staining based flow cytometry (reference value: 0.6%). In kind it is functional.
Series [12] deals with K562. Briefly: Induction of apoptosis in human K562 cells at 10 uM by Annexin V-FITC/propidium iodide staining based flow cytometry. It is filed as functional, cell-based. As to conditions: TDE = time-dependent effect.
The nature of series [13]: Induction of nanoparticle formation in ultrapure water assessed as nanoparticle size at 0.1 uM by transmission electron microscopic method.
The nature of series [14]: Induction of nanoparticle solid formation assessed as nanoparticle size at 0.1 uM by scanning electron microscopic method.
A short description of series [15]: Induction of nanoparticle solid formation assessed as nanoparticle size at 1 uM by scanning electron microscopic method.
The nature of series [16]: Induction of nanoparticle solid formation assessed as nanoparticle size at 10 uM by scanning electron microscopic method.
In series [17] the test system is Plasma. Description: Induction of nanoparticle formation in rat plasma assessed as nanoparticle size at 0.1 uM by atomic force microscopy. It is filed as cell-free.
The subject of series [18] is Plasma. Briefly: Induction of nanoparticle formation in rat plasma assessed as nanoparticle size at 1 uM by atomic force microscopy. In kind it is cell-free.
The test system of series [19] is Plasma. Briefly: Induction of nanoparticle formation in rat plasma assessed as nanoparticle size at 10 uM by atomic force microscopy. In kind it is cell-free.
The next series deals with HCT-8. Briefly: Antiproliferative activity against human HCT8 cells after 48 hrs by MTT assay. It is filed as functional, cell-based. To be noted: HCT-8, 48 h.
The next series relates to HL-60. Description: Antiproliferative activity against human HL60 cells after 48 hrs by MTT assay. In kind it is functional, cell-based. As to conditions: HL-60, 48 h.
The test system of the next series is A549. Briefly: Antiproliferative activity against human A549 cells after 48 hrs by MTT assay. In kind it is functional, cell-based. To be noted: A549, 48 h.
Series [20] is filed under the species Bos taurus. Briefly: Binding affinity to calf thymus DNA assessed as fluorescence quenching by measuring bathochromic shift by spectrofluorometric method.
Series [21] can be described thus: Drug uptake in nucleus of human HeLa cells at 40 uM by fluorescence microscopy. It is filed as ADME, cell-based. To be noted: TDE = time-dependent effect.
Series [22] is described as follows: Drug uptake in nucleus of human SH-SY5Y cells at 40 uM by fluorescence microscopy. In kind it is ADME. As to conditions: TDE = time-dependent effect.
The test system of series [23] is CCRF S-180. Briefly: Antitumor activity against mouse S180 cells implanted in ICR mouse assessed as decrease in tumor weight administered intraperitoneally daily for 10 days and measured after 24 hrs last dose. It is filed as functional.
Series [24] deals with Mus musculus. Description: Downregulation of P-selectin expression in ip dosed ICR mouse serum implanted with mouse S180 cells by ELISA. It is filed as functional, organism-based.
Series [25] has as its system Mus musculus. Briefly: Downregulation of TNFalpha levels in ip dose ICR mouse serum implanted with mouse S180 cells by ELISA. In kind it is functional, organism-based.
Series [26] relates to Mus musculus. Description: Antiinflammatory activity in ICR mouse assessed as inhibition of xylene-induced ear edema at 1 umol/kg, po pretreated for 30 mins followed by xylene administration measured after 2 hrs relative to control. It is filed as functional, organism-based.
Series [27] concerns Mus musculus. Briefly: Antiinflammatory activity in xylene induced ICR mouse ear edema model assessed as decrease in serum TNFalpha level at 1 umol/kg, po pretreated for 30 mins followed by xylene administration measured after 2 hrs by ELISA. In kind it is functional, organism-based.
For series [28], the system named is Mus musculus. Description: Antiinflammatory activity in xylene induced ICR mouse ear edema model assessed as decrease in serum IL2 level at 1 umol/kg, po pretreated for 30 mins followed by xylene administration measured after 2 hrs by ELISA. In kind it is functional, organism-based.
Series [29] has as its system Mus musculus. Description: Potency index, ratio of compound effect to aspirin effect for antiinflammatory activity in ICR mouse assessed as inhibition of xylene-induced ear edema. It is filed as functional.
Series [30] in a line: Induction of nanoparticle formation in ultrapure water by transmission electron microscopic method.
Series [31] can be described thus: Induction of nanoparticle solid formation by scanning electron microscopic method.
Series [32] concerns Plasma. Briefly: Induction of nanoparticle formation in rat plasma by atomic force microscopy. It is filed as cell-free.
Series [33] in a line: Induction of nanoparticle formation in ultrapure water assessed as Farady-Tyndall effect at 1 uM under 650 nanometer laser beam irradiation.
A short description of series [34]: Induction of nanoparticle formation in ultrapure water assessed as Farady-Tyndall effect at 1 uM.
The nature of series [35]: Induction of nanoparticle formation in ultrapure water assessed as nanoparticle size at 1 uM under 650 nanometer laser beam irradiation.
Series [36] can be described thus: Induction of nanoparticle formation in ultrapure water assessed as zeta potential at 1 uM under 650 nanometer laser beam irradiation.
The species entered for series [37] is Bos taurus. Briefly: Binding affinity to calf thymus DNA by UV spectrum analysis.
The species named for series [38] is Bos taurus. Description: Binding affinity to calf thymus DNA by CD spectrum analysis.
Series [39] is described as follows: Drug uptake in nucleus of human HT-29 cells at 40 uM by fluorescence microscopy. It is filed as ADME. To be noted: TDE = time-dependent effect.
Series [40] relates to CCRF S-180. Briefly: Potency index, ratio of compound effect to doxorubicin effect for antitumor activity against mouse S180 cells implanted in ICR mouse assessed as decrease in tumor weight. It is filed as functional.
In series [41] the test system is CCRF S-180. Briefly: Antitumor activity against mouse S180 cells implanted in ICR mouse assessed as decrease in tumor size at 0.01 to 1 umol/kg, ip administered daily for 10 days and measured 24 hrs post last dose. It is filed as functional, organism-based.
For series [42], the system named is CCRF S-180. Briefly: Antitumor activity against mouse S180 cells implanted in ICR mouse assessed as decrease in tumor weight at 2 umol/kg, ip administered daily for 10 days and measured 24 hrs post last dose. In kind it is functional, organism-based.
In series [43] the test system is Mus musculus. Briefly: Antiinflammatory activity in ICR mouse assessed as inhibition of xylene-induced ear edema at 16.7 umol/kg, po pretreated for 30 mins followed by xylene administration measured after 2 hrs relative to control. In kind it is functional, organism-based.

Active and inactive are the calls of the source. The rule behind the calls is not given here.

As to `N=C(NCCC[C@H](NC(=O)c1cc2c(cn1)[nH]c1ccccc12)C(=O)OCc1ccccc1)N[N+](=O)[O-]`, the Activity in series [1] is 10.8 to 116 nm; in series [2], 43.9 to 176 nm; with K562 [4], 9%; with K562 [5] it was 3.5%; in the series with K562 [6] it was 73%; in the series on K562 [7], 14.5%. Also, the Activity was 25.5% in the series on K562 [8]; 60.7% with K562 [9]; 12.4% with K562 [10]; 1.4% in the series with K562 [11]; “Tde” in the series with K562 [12]; 8 to 72.7 nm in [13]. The Activity in series [14] is 28.6 to 88.9 nm; in [15], 33.3 to 100 nm; in series [16], 44.4 to 111 nm; with Plasma [17], 68.6 to 78.4 nm; with Plasma [18], 78.5 to 98 nm; with Plasma [19], 102 to 109 nm. Besides, the Activity entry (in the series filed under Bos taurus [20]; with CCRF S-180 [23]; in the series on Mus musculus [24]; with Mus musculus [25]; in [30]; in series [31]) was “Dose-dependent effect” throughout. Besides, the Activity entry in the series on Plasma [32] was “Dose-dependent effect”; in series [35], 165 nm; in series [36], -14.2 mV; in the series listed under Bos taurus [37], “Dose-dependent effect”; in the series listed under Bos taurus [38], “Dose-dependent effect”. Besides, the IC50 in the series on K562 [3], in the series on HT-29, in the series on HeLa, in the series with SH-SY5Y, in the series on HCT-8 and in the series on HL-60 was 15.3 to 74.1 µM each time. The compound also had an IC50 in the series on A549 of 15.3 to 74.1 µM. Besides, the Drug uptake result in series [21], in series [22] and in series [39] was “Tde” throughout. Moreover, in the series on CCRF S-180 [23], the MED was 0.01 µmol/kg. The inhibition entry with Mus musculus [26] was “Active”. For the same compound, the outcome (with Mus musculus [27]; in the series with Mus musculus [28]; in series [33]; in the series with CCRF S-180 [41]) was Active. Further, the Ratio in the series with Mus musculus [29] is listed as 16.7; with CCRF S-180 [40], 2. In addition, the result in [34] was inactive.
As to `COc1cccc2c1C(=O)c1c(O)c3c(c(O)c1C2=O)C[C@@](O)(C(=O)CO)C[C@@H]3O[C@H]1C[C@H](N)[C@H](O)[C@H](C)O1`, in the series with CCRF S-180 [42], the result was Active.
For `CC(=O)Oc1ccccc1C(=O)O`, in the series on Mus musculus [43], the inhibition result is “Active”.
